Assays:
[1] = system: Immortalized human cystic fibrosis airway cells (CFT-1); test: SPQ assay of cAMP-stimulated Cl− channel activity after transfection with pCMV-CFTR; assay type: cell-based; conditions: amphiphile:DOPE 1:1, 10.5 μmolar each, 30 μmolar pCMV-CFTR; 48 hours after transfection
Protocol: Immortalized human cystic fibrosis airway cells (CFT-1, as above) were used.
In preparation for the assay, the cells were grown on glass coverslips until approximately 60% confluent. The cells were then transfected with a complex of spermidine cholesterol carbamate: DOPE (1:1) and a plasmid(pCMV-CFTR) containing a cDNA that encodes wild type human CFTR. pCMV-CFTR plasmid is a construct containing the encoding sequence for CFTR and the following regulatory elements, a CMV promoter and enhancer, and an SV40 polyadenylation signal. Additional constructs suitable for the practice of this example include pMT-CFTR, Cheng et al., Cell. 63, 827-834 (1990). The complex used was 10.5 μmolar of spermidine cholesterol carbamate (also of DOPE) and 30 μmolar of pCMV-CFTR based on nucleotide.
48 hours after amphiphile-mediated transfection, cells were tested for cAMP-stimulated Cl^−channel activity using the 6methoxy-N-(3-sulfopropyl)quinolinium (“SPQ”) assay. […] In the assay, cAMP-dependent Cl^−channel activity was assessed using “SPQ” (from Molecular Probes, Eugene, Oreg.), a halide-sensitive fluorophore. Increases in halide permeability results in a more rapid increase in SPQ fluorescence, and the rate of change (rather than the absolute change in fluorescence) is the important variable in assessing Cl^−permeability. […]

[2] = Zeta potential of amphiphile/DNA complex; assay type: physicochemical; conditions: 1:1 with DOPE
Protocol: Zeta potentials of the samples can be measured (using typically 5 measurements per sample) employing a Malvern Zetasizer 4 (Malvern Instruments, Southborough, Mass.) and a zeta cell (AZ-104 cell, Malvern Instruments Co.). Dried lipid films containing the cationic lipid and DOPE are hydrated in distilled water (dH2O). DNA typically should be diluted to a concentration of about 300 μM in dH2O. The DNA solution (1.5 mL) can then be added to an equal volume of cationic lipid vesicles and incubated at room temperature for 10 min. Enough NaCl (for example, 4 mM stock) may be added to result in a final concentration of 1 mM NaCl. If necessary, the sample can be diluted further with 1 mM NaCl (to maintain a photomultiplier signal below 4000 counts per second), and distilled water can be used in place of the NaCl solutions.

[3] = system: CFT-1 cell line (human cystic fibrosis bronchial epithelial cells); test: Cell transfection assay (β-galactosidase expression from pCMVβ); assay type: cell-based; conditions: amphiphile:DOPE 1:1, CFT-1 cells
Protocol: Separate 3.35 μmole samples of spermidine cholesterol carbamate (amphiphile No. 53) and the neutral lipid dioleoylphosphatidylethanolamine (“DOPE”) were each dissolved in chloroform as stock preparations. Following combination of the solutions, a thin film was produced by removing chloroform from the mixture by evaporation under reduced pressure (20 mm Hg). The film was further dried under vacuum (1 mm Hg) for 24 hours.
The resulting suspension was then diluted with 4 ml of water to yield a solution that is 670 μM in cationic amphiphile and 670 μM in neutral colipid.
For preparation of the transfecting solution, DNA encoding for β- galactosidase (pCMVβ, ClonTech., Palo Alto, Calif.) was dissolved in OptiMEM culture medium (Gibco/BRL No. 31885-013).
The resulting 335 μM solutions were then serially diluted 7 times to generate 8 separate amphiphile-containing solutions having concentrations ranging from 335 μM to 2.63 μM, with each resultant solution having a volume of 165 μl. Thus, 64 solutions were prepared in all, there being 8 wells each of 8 different concentrations of amphiphile/DOPE. […]

lungs of balb/c mice = system: lungs of balb/c mice
Protocol: This assay was used to assess the ability of the cationic amphiphiles of the invention to transfect cells in vivo from live specimens. In the assay, the lungs of balb/c mice were instilled intra-nasally (the procedure can also be performed trans-tracheally) with 100 μl of cationic amphiphile: DNA complex, which was allowed to form during a 15-minute period prior to administration according to the following procedure. The amphiphile (premixed with co-lipid, see below) was hydrated in water for 10 minutes, a period sufficient to yield a suspension at twice the final concentration required. This was vortexed for two minutes and aliquoted to provide 55 microliter quantities for each mouse to be instilled. Similarly, DNA encoding the reporter (CAT) gene was diluted with water to a concentration twice the required final concentration, and then aliquoted at 55 microliters for each mouse to be instilled. The lipid was gently combined with the DNA (in a polystyrene tube), and the complex allowed to form for 15 minutes before the mice were instilled therewith.
The plasmid used (pCMVHI-CAT, see Example 4) provides an encoding DNA for chloramphenicol transferase enzyme. Specifics on the amphiphile: DNA complexes are provided below.
Two days following transfection, mice were sacrificed, and the lungs and trachea removed, weighed, and homogenized in a buffer solution (250 mM Tris, pH 7.8, 5 mM EDTA). The homogenate was clarified by centrifugation, and the deacetylases therein were inactivated by heat treatment at 70° C. for 10 minutes. Lysate was incubated overnight with acetyl coenzyme A and C^14-chloramphenicol. CAT enzyme activity was then visualized by thin layer chromatography (“TLC”) following an ethyl acetate extraction.
The presence of the enzyme CAT will cause an acetyl group to be transferred from acetylcoenzyme A to C^14-chloramphenicol. The acetylated/radiolabeled chloramphenicol migrates faster on a TLC plate and thus its presence can be detected.
With respect to the comparison provided by FIG. 10, the following conditions are of note. The transfection solution for spermidine cholesterol carbamate contained 6 mM DNA measured as concentration of nucleotide, and 1.5 mM of cationic amphiphile. […] For transfection with DC-chol, the molar ratio of DC-chol to DOPE was 3:2, and the concentrations of cationic amphiphile and of DNA (as nucleotide) were 1.3 mM and 0.9 mM, respectively. For transfection with DMRIE, the molar ratio of DMRIE to DOPE was 1:1 and the concentrations of cationic amphiphile and of DNA were 1.7 mM and 1.2 mM, respectively.
Additional experiments were performed to compare in vivo the transfection efficiency of cationic amphiphiles depicted in FIGS. 1, 5 and 7. […] The compounds were administered intra-nasally using between 12 and 15 mice per compound. As in part A above, ng CAT activity was measured per 100 mg of tissue. […] Construction of pCF1/CAT and pCF2/CAT is described below in Example 4.
The in vivo data reported in FIGS. 13, 14 and 15 were compiled generally as follows. As aforementioned, FIGS. 10 and 11 report data from the complete in vivo optimization of amphiphile No. 53. Amphiphile No. 67 was subjected to a similar partial optimization. With respect to all of the other cationic amphiphiles reported on, and taking advantage of numerous structural similarities, optimized compositions for in vivo testing were extrapolated from in vitro results.

BALB/c mouse = test: Intravenous delivery of CAT reporter transgene, organ targeting (lung, heart); assay type: in vivo
Protocol: The reporter plasmid pCF-1 CAT (Example 4) was used and was purified to minimize endotoxin (<1 EU/mg pDNA), and also chromosomal DNA contamination (<2%). Amphiphile No. 53 (1:1 with DOPE)/DNA complex was prepared according to the procedures of Example 3. The amphiphile was provided as the free base, the plasmid was prepared as a sodium salt in water, and the DOPE was provided in zwitterionic form.
The animal model was the BALB/c mouse. Females 6-8 weeks old weighing 16-18 g were injected intravenously using the tail vein, using 5 animals per group. The volume of lipid: pDNA complex used was 100 μl in all experiments. Unless noted otherwise, mice were sacrificed 48 h following administration of the complex. Organs were frozen immediately on dry ice to store for subsequent analysis.
Expression of chloramphenicol acetyl transferase (CAT) was quantitated using a radiochemical assay for CAT enzymatic activity. Organs were weighed and homogenized on ice in a lysis buffer containing protease inhibitors. The lysate was freeze-thawed 3X, centrifuged, and heated to 65° C. to inactivate deacetylases before adding it to a reaction mixture containing ^14C-chloramphenicol. […] Spots corresponding to the acylated reaction products were quantitated (Betagen) and converted to ng CAT activity using authentic CAT standards. […]

[4] = Transgene expression by protonation state of the amphiphile in transfecting composition with DOPE; conditions: for transgene expression activity: with DOPE
Protocol: With respect to amphiphile No. 67 (spermidine cholesterol carbamate), it has been observed that when providing this amphiphile for a transfecting composition with DOPE (itself provided as a zwitterion), transgene expression was best for the free base, but decreased if the amphiphile was prepared as an acetate salt. […] Under the circumstances described, the plasmid DNA provided for contacting with the amphiphile was prepared (without buffer) as a sodium salt in water.

[5] = Transacylation reaction of amphiphile with co-lipid DOPE on co-storage; assay type: physicochemical
Excerpt: Although heretofore unrecognized in the art, it has been determined also that certain co-lipids may react chemically with certain types of cationic amphiphiles under conditions of co-storage, there resulting new molecular species. Generation of such new species is believed to occur via mechanisms such as transacylation. In this regard, see FIG. 4 which depicts a transacylation reaction involving spermidine cholesterol carbamate(No.67) and DOPE, there resulting lyso PE species and multiple forms of particular acyl-cationic amphiphile (designated No. 80).
With respect to such reactions, the following remarks are of interest. […] It is expected that these phenomena would also apply to lyophilized amphiphile/DOPE preparations.
Accordingly, it is highly preferred to maintain such amphiphile/DOPE preparations at very cold temperatures, such as −70 degrees C.

[6] = 1.0-1.5 mM amphiphile, cholesterol 1:1, DNA 4.0-6.0 mM, pCMVHI-CAT, intra-nasal
[7] = 0.6 mM amphiphile, 0.6 or 1.2 mM DOPE, 3.6 mM plasmid DNA

SMILES: CC(C)CCCC(C)C1CCC2C3CC=C4CC(OC(=O)N(CCCN)CCCCN)CCC4(C)C3CCC12C (centres unmarked) [amphiphile No. 53, N^4-spermidine cholesteryl carbamate]
- cells exhibiting measurable cAMP-stimulated Cl− channel activity [1]: Approximately 60%
- zeta potential of the complex ([2]; amphiphile/DNA molar ratio less than about 0.5): about −30 mV
- zeta potential of the complex ([2]; amphiphile/DNA ratio of 1.25): about +30 mV
- transfection efficiency (β-galactosidase expression) improved by a factor, relative to DMRIE:DOPE (1:1) [3]: about 5
- enhancement of in vivo transfection (ng CAT activity per 100 mg tissue) in relation to DMRIE and DC-Chol (lungs of balb/c mice; 1.5 mM amphiphile, 1:1 DOPE, 6 mM DNA (pCMVHI-CAT), intra-nasal, 2 days): ≥ 20 fold
- transfection enhancement in relation to N^1-spermidine cholesteryl carbamate (lungs of balb/c mice; 6 mM DNA (as nucleotide), 1.5 mM amphiphile, 1.5 mM co-lipid, procedures of Example 3 part B): about 30 fold
- transfection efficiency (ng CAT/100 mg tissue) with cholesterol as co-lipid compared with DOPE as co-lipid (lungs of balb/c mice; [6]): less effective
- transfection with cholesterol as co-lipid compared with DC-Chol/DOPE (lungs of balb/c mice; [6]): substantially more effective
- toxicity to the target cells (lungs of balb/c mice; about 0.75 mM amphiphile, 3.0 mM plasmid, versus 1.5 mM / 6 mM): less toxic
- organ distribution of CAT expression (BALB/c mouse; amphiphile/DNA molar ratio less than about 0.5, DNA 0.9 mM): strongly weighted toward the lung
- organ distribution of CAT expression (BALB/c mouse; amphiphile/DNA ratio 1.25, DNA 0.9 mM): substantial expression was found in the heart

SMILES: CC(C)CCCC(C)C1CCC2C3CC=C4CC(OC(=O)NCCCNCCCCN)CCC4(C)C3CCC12C (centres unmarked) [amphiphile No. 37, N^1-spermidine cholesteryl carbamate]
- improvement in reporter gene expression, free base form versus fully protonated hydrochloride salt (lungs of balb/c mice; [7]): ~50 fold
- reporter gene expression, free base form compared to fully protonated hydrochloride salt (lungs of balb/c mice; [7]): dramatically increased

SMILES: CC(C)CCCC(C)C1CCC2C3CC=C4CC(OC(=O)N(CCCN)CCCCNCCCN)CCC4(C)C3CCC12C (centres unmarked) [amphiphile No. 67]
- transgene expression ([4]; amphiphile as free base, with DOPE (zwitterion)): best
- transgene expression activity ([4]; amphiphile as mono and di acetate salts): decreased step-wise
- transgene expression activity ([4]; amphiphile as tri-acetate salt): minimal
- transacylation with DOPE ([5]; amphiphile and co-lipid dried down to a thin film from chloroform): transacylation also occurs
- transacylation with DOPE ([5]; amphiphile prepared as mono, di, or tri acetate salt): slow transacylations
- transacylation with DOPE ([5]; mixture of amphiphile and DOPE in chloroform solvent): does not appear to participate in such reactions
- transfection enhancement in relation to N^1-thermospermine cholesteryl carbamate and N^1-spermidine cholesteryl carbamate (lungs of balb/c mice; 4 mM DNA (as nucleotide), 1 mM amphiphile, 2 mM co-lipid, procedures of Example 3 part B): at least 30 fold
